# Like-named read-outs stand apart in the source and are kept apart here.
# Legend:
# Assay type in all cases: cell-based
# [1] = tested on: Staphylococcus aureus NRS384 (MRSA); assay: Broth microdilution MIC, S. aureus NRS384 (MRSA); conditions: Staphylococcus aureus, broth microdilution, 37° C., 20 hours
# Summary of the method: (§1)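 Broth microdilution in strain-specific test medium with ~5.0×10^5 cfu/ml inoculum, 1% DMSO and two-fold compound dilutions from 64 to 0.0625 μg/ml. Plates were held 20 hours at 37° C in ambient air. S. pneumoniae colonies were grown beforehand on blood agar in 5% CO2.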
# [2] = tested on: Staphylococcus aureus ATCC 29213 (MSSA); assay: Broth microdilution MIC, S. aureus ATCC 29213 (MSSA); conditions: broth microdilution, 37° C., 20 hours, read-out: MIC S. aureus ATCC 29213 (MSSA)
# Summary of the method: as §1
# [3] = tested on: Enterococcus faecalis ATCC 29212; assay: Broth microdilution MIC, E. faecalis ATCC 29212; conditions: ATCC29212, broth microdilution, 37° C., 20 hours, read-out: MIC E. faecalis ATCC 29212
# Summary of the method: as §1
# [4] = tested on: Enterococcus faecium ATCC 700221 (VRE); assay: Broth microdilution MIC, E. faecium ATCC 700221 (VRE); conditions: Enterococcus faecium, broth microdilution, 37° C., 20 hours
# Summary of the method: as §1
# [5] = tested on: Streptococcus pneumoniae ATCC 49619; assay: Broth microdilution MIC, S. pneumoniae ATCC 49619; conditions: ATCC49619, broth microdilution, 37° C., 20 hours, read-out: MIC S. pneumoniae ATCC 49619
# Summary of the method: as §1
# [6] = tested on: Bacillus subtilis ATCC 6633; assay: Broth microdilution MIC, B. subtilis ATCC 6633; conditions: ATCC6633, broth microdilution, 37° C., 20 hours, read-out: MIC B. subtilis ATCC 6633
# Summary of the method: as §1
# [7] = tested on: Escherichia coli ATCC 25922; assay: Broth microdilution MIC, E. coli ATCC 25922 (MHIIB w & w/o 4 mM EDTA); conditions: broth microdilution, 37° C., 20 hours; for MIC: Escherichia coli, ATCC25922, without EDTA, read-out: MIC E. coli ATCC 25922; for MIC E. coli ATCC 25922 + 4 mM EDTA: with 4 mM EDTA
# Summary of the method: as §1
# [8] = read-out: MIC E. faecium ATCC 700221 (VRE)
SMILES,MIC ([1]; read-out: MIC NRS 384 (MRSA)) [µg/mL],MIC [2] [µg/mL],MIC [3] [µg/mL],"MIC [4, 8] [µg/mL]",MIC [5] [µg/mL],MIC [6] [µg/mL],MIC [7] [µg/mL],MIC E. coli ATCC 25922 + 4 mM EDTA [7] [µg/mL],"MIC ([1]; MHIIB, read-out: MIC against S. aureus NRS 384 (MRSA)) [µg/mL]","MIC ([4]; MHIIB, read-out: MIC against E. faecium ATCC 700221 (VRE)) [µg/mL]"
"Cc1noc(C)c1C(=O)NCCn1ncc2nc(NCc3ccc(Cl)c(Cl)c3)[nH]c(=O)c21 [Compound 79, N-(2-(5-((3,4-dichlorobenzyl)amino)-7-oxo-6,7-dihydro-1H-pyrazolo[4,3-d]pyrimidin-1-yl)ethyl)-3,5-dimethylisoxazole-4-carboxamide]",32,16,16,8,8,16,> 64,>64,–,–
"CN(CCn1ncc2nc(NCc3ccc(Cl)c(Cl)c3)[nH]c(=O)c21)C(=O)c1cc(Cl)nnc1O [Compound 81, 6-Chloro-N-(2-(5-((3,4-dichlorobenzyl)amino)-7-oxo-6,7-dihydro-1H-pyrazolo[4,3-d]pyrimidin-1-yl)ethyl)-3-hydroxy-N-methylpyridazine-4-carboxamide]",64,64,32,32,8,64,> 64,64,–,–
"O=C(NCCn1ncc2nc(NCc3ccc(Cl)c(Cl)c3)[nH]c(=O)c21)c1cc(Cl)nnc1O [Compound 83, 6-chloro-N-(2-(5-((3,4-dichlorobenzyl)amino)-7-oxo-6,7-dihydro-1H-pyrazolo[4,3-d]pyrimidin-1-yl)ethyl)-3-hydroxypyridazine-4-carboxamide]",> 64,> 64,> 64,> 64,8,64,> 64,>64,–,–
"CN(CCn1ncc2nc(NCc3ccc(Cl)c(Cl)c3)[nH]c(=O)c21)C(=O)c1cc(Cl)nnc1Cl [Compound 85, 3,6-dichloro-N-(2-(5-((3,4-dichlorobenzyl)amino)-7-oxo-6,7-dihydro-1H-pyrazolo[4,3-d]pyrimidin-1-yl)ethyl)-N-methylpyridazine-4-carboxamide]",8,8,8,4,8,4,> 64,16,–,–
"O=C(NCCn1ncc2nc(NCc3ccc(Cl)c(Cl)c3)[nH]c(=O)c21)c1cnoc1 [Compound 86, N-(2-(5-((3,4-dichlorobenzyl)amino)-7-oxo-6,7-dihydro-1H-pyrazolo[4,3-d]pyrimidin-1-yl)ethyl)isoxazole-4-carboxamide]",> 64,> 64,> 64,> 64,> 64,> 64,> 64,>64,–,–
"CN(CCn1ncc2nc(NCc3ccc(Cl)c(Cl)c3)[nH]c(=O)c21)C(=O)c1cc(O)nnc1Cl [Compound 87, 3-chloro-N-(2-(5-((3,4-dichlorobenzyl)amino)-7-oxo-6,7-dihydro-1H-pyrazolo[4,3-d]pyrimidin-1-yl)ethyl)-6-hydroxy-N-methylpyridazine-4-carboxamide]",> 64,64,32,32,8,64,> 64,>64,–,–
"CC(=O)OCCCCn1ncc2nc(NCc3ccc(Cl)c(Cl)c3)[nH]c(=O)c21 [Compound 90, 4-(5-((3,4-Dichlorobenzyl)amino)-7-oxo-6,7-dihydro-1H-pyrazolo[4,3-d]pyrimidin-1-yl)butyl acetate]",1,2,2,1,2,0.5,> 64,>64,≤ 1,≤ 1
"O=c1[nH]c(NCc2ccc(Cl)c(Cl)c2)nc2cnn(Cc3nccs3)c12 [Compound 91, 5-((3,4-Dichlorobenzyl)amino)-1-(thiazol-2-ylmethyl)-1H-pyrazolo[4,3-d]pyrimidin-7(6H)-one]",2,4,4,2,4,1,> 64,32,–,–
"O=c1[nH]c(NCc2ccc(Cl)c(Cl)c2)nc2cnn(Cc3cocn3)c12 [Compound 92, 5-((3,4-Dichlorobenzyl)amino)-1-(oxazol-4-ylmethyl)-1H-pyrazolo[4,3-d]pyrimidin-7(6H)-one]",4,4,4,2,4,2,> 64,8,–,–

# The remaining lines, values ahead:
MIC ([1]; read-out: MIC NRS 384 (MRSA)) [µg/mL],MIC [2] [µg/mL],MIC [3] [µg/mL],"MIC [4, 8] [µg/mL]",MIC [5] [µg/mL],MIC [6] [µg/mL],MIC [7] [µg/mL],MIC E. coli ATCC 25922 + 4 mM EDTA [7] [µg/mL],"MIC ([1]; MHIIB, read-out: MIC against S. aureus NRS 384 (MRSA)) [µg/mL]","MIC ([4]; MHIIB, read-out: MIC against E. faecium ATCC 700221 (VRE)) [µg/mL]",SMILES
32,32,32,16,8,16,> 64,64,–,–,"Cc1noc(C)c1C(=O)N(C)CCn1ncc2nc(NCc3ccc(Cl)c(Cl)c3)[nH]c(=O)c21 [Compound 80, N-(2-(5-((3,4-dichlorobenzyl)amino)-7-oxo-6,7-dihydro-1H-pyrazolo[4,3-d]pyrimidin-1-yl)ethyl)-N,3,5-trimethylisoxazole-4-carboxamide]"
16,16,8,4,8,8,> 64,>64,–,–,"CN(CCn1ncc2nc(NCc3ccc(Cl)c(Cl)c3)[nH]c(=O)c21)C(=O)c1cnoc1 [Compound 82, N-(2-(5-((3,4-dichlorobenzyl)amino)-7-oxo-6,7-dihydro-1H-pyrazolo[4,3-d]pyrimidin-1-yl)ethyl)-N-methylisoxazole-4-carboxamide]"
64,64,64,32,16,64,> 64,>64,–,–,"O=C(NCCn1ncc2nc(NCc3ccc(Cl)c(Cl)c3)[nH]c(=O)c21)c1cc(O)nnc1Cl [Compound 84, 3-chloro-N-(2-(5-((3,4-dichlorobenzyl)amino)-7-oxo-6,7-dihydro-1H-pyrazolo[4,3-d]pyrimidin-1-yl)ethyl)-6-hydroxypyridazine-4-carboxamide]"
4,4,4,2,2,2,> 64,>64,–,–,"O=c1[nH]c(NCc2ccc(Cl)c(Cl)c2)nc2cnn(CCOCCO)c12 [Compound 88, 5-((3,4-dichlorobenzyl)amino)-1-(2-(2-hydroxyethoxy)ethyl)-1H-pyrazolo[4,3-d]pyrimidin-7(6H)-one]"
2,4,4,1,2,1,> 64,64,–,–,"O=c1[nH]c(NCc2ccc(Cl)c(Cl)c2)nc2cnn(CCCCO)c12 [Compound 89, 5-((3,4-Dichlorobenzyl)amino)-1-(4-hydroxybutyl)-1H-pyrazolo[4,3-d]pyrimidin-7(6H)-one]"

# From patent US10723741B1, “DNA polymerase IIIC inhibitors and use thereof” (Acurx Pharmaceuticals, LLC, priority 2018, dated 2020)
